From US7115641B2, “Antimicrobial oxazolidine/iodopropynyl-butyl carbamate composition containing less than 0.1wt% free formaldehyde” (ISP Investments Inc., priority 2003, dated 2006)

Tests used:
Format in all cases: cell-based
[1] = system: Bacillus subtilis (ATCC 27328); assay: MIC and synergy in Tryptic Soy Broth; details: TSB, 32° C., 2–3 days
Protocol: (§1) One hundred μl of the bacterial suspensions were added to TSB broth containing each biocide or biocide mixture to a final concentration of approximately 10^6 CFU/ml. The inoculated broth was then incubated at 32° C. for 2–3 days. For fungi MIC, 10 μl of the fungi suspensions were pipetted to the solidified Malt agar containing various concentrations of each biocide or the biocide mixture. Final concentration about 10^5 spores/ml. Plates were incubated for 10–12 days at 28° C.
(§2) The lowest concentration of each compound or mixture to inhibit visible growth at 32° C. after 2–3 days for bacteria and at 28° after 10–12 days for fungi were taken as the Minimal Inhibitory Concentration (MIC). The MIC was taken as endpoints of activity. End points for the mixture of HMBO and IPBC where then compared with the end points for the pure active compound when employed individually.
(§3) Synergism was determined by a commonly used method described by Kull, A. C., Eisman, P. C, Sylwestrowicz, H., D. and Mayer, R. L. (1961). Applied Microbiology, 9:538 using the ratio determined by: Qa/QA+Qb/QB=Synergy Index (SI).
Wherein: QA is the concentration of HMBO in parts per million (ppm), acting alone, which produced and end point. Qa is the concentration of HMBO in ppm, in the mixture, which produced and end point. […]

Alternaria alternata = assay: MIC and synergy on Malt Agar; details: 28° C., 10–12 days
Protocol: as §1, §2, §3
(§4) Wherein: QA is the concentration of HMBO in parts per million (ppm), acting alone, which produced and end point. Qa is the concentration of HMBO in ppm, in the mixture, which produced and end point. QB is the concentration of IPBC in ppm, acting alone, which produced an end point and Qb is the concentraton of IPBC in ppm, in the mixture, which produced an end point.
(§5) When the sum of Qa/QA+Qb/QB is greater than one, antagonism is indicated. When the sum is equal to one, additivity is indicated.

[2] = system: Aspergillus niger (ATCC 6275); assay: MIC and synergy on Malt Agar; details: 28° C., 10–12 days
Protocol: as §1, §2, §3, §4, §5

[3] = system: mixed culture of Pseudomonas aeruginosa, Enterobacter cloacae, Bacillus subtilis, B. megaterium, B. licheniformis, Aspergillus niger and Penicillium …; assay: Latex paint in-can preservation, ASTM D2574-94, mixed inoculum; set-up: key: 0: no growth; 4: heavy growth
Protocol: The efficacy of each individual compound or their combination was measured in a latex paint artificially contaminated with a mixed inoculum. The microbiological evaluations shown as examples, are based on ASTM D2574–94, “Resistance of emulsion paints in the container to the attack of microorganisms”. Briefly, paint samples (e.g. Polyvinyl Acrylic, PCL 717) were prepared to contain different concentrations of each compound or their mixtures in different concentrations and ratios. Each paint sample thus prepared was then inoculated with a mixed culture of Pseudomonas aeruginosa, Enterobacter cloacae, Bacillus subtilis, B. megaterium, B. licheniformis, Aspergillus niger and Penicillium funiculosum (final concentration of about 10^6 CFU/ml) and re-challenged after 7 days (final concentration of about 10^7 CFU/ml). Paint samples were incubated at 32° C. for the duration of the test and sampled for the presence of viable bacteria on TSA and M plates. Growth was rated on a scale from “0” (no growth) to “4” (heavy growth). A paint sample was considered appropriately preserved if no bacterial growth (“0” rating) was detected after six days incubation in both challenge assays.
The table summarizes the results obtained when mixtures of the low formaldehyde hydroxymethyl oxazolidine (HMBO) (compound A) and IPBC (compound B) in PEG-400 were tested.

## OCC12COCN1COC2 [compound A, hydroxymethyl bicyclic oxazolidine]
[1]
  Minimal Inhibitory Concentration (MIC), acting alone: 250 ppm
Alternaria alternata
  Minimal Inhibitory Concentration (MIC), acting alone: 250 ppm
[2]
  Minimal Inhibitory Concentration (MIC), acting alone: 1,000 ppm
[3]; A alone 500 ppm
  Growth rating MALT Plates CI 1: 0
  Growth rating MALT Plates CI 2: 0
  Growth rating MALT Plates CI 3: 0
  Growth rating MALT Plates CI 6: 0
  Growth rating MALT Plates CII 1: 0
  Growth rating MALT Plates CII 2: 0
  Growth rating MALT Plates CII 3: 0
  Growth rating MALT Plates CII 6: 0
  Growth rating TSA plates CI 1: 0
  Growth rating TSA plates CI 2: 0
  Growth rating TSA plates CI 3: 0
  Growth rating TSA plates CI 6: 0
  Growth rating TSA plates CII 1: 1
  Growth rating TSA plates CII 2: 1
  Growth rating TSA plates CII 3: 1
  Growth rating TSA plates CII 6: 1
[3]; A alone 520 ppm
  Growth rating MALT Plates CI 1: 0
  Growth rating MALT Plates CI 2: 0
  Growth rating MALT Plates CI 3: 0
  Growth rating MALT Plates CI 6: 0
  Growth rating MALT Plates CII 1: 0
  Growth rating MALT Plates CII 2: 1
  Growth rating MALT Plates CII 3: 1
  Growth rating MALT Plates CII 6: 0
  Growth rating TSA plates CI 1: 0
  Growth rating TSA plates CI 2: 0
  Growth rating TSA plates CI 3: 0
  Growth rating TSA plates CI 6: 0
  Growth rating TSA plates CII 1: 0
  Growth rating TSA plates CII 2: 0
  Growth rating TSA plates CII 3: 1
  Growth rating TSA plates CII 6: 0

## CCCCNC(=O)OCC#CI [compound B, iodopropynyl butyl carbamate]
[1]
  Minimal Inhibitory Concentration (MIC), acting alone: 62.5 ppm
Alternaria alternata
  Minimal Inhibitory Concentration (MIC), acting alone: 0.50 ppm
[2]
  Minimal Inhibitory Concentration (MIC), acting alone: 0.25 ppm
[3]; B alone 60 ppm
  Growth rating MALT Plates CI 1: 0
  Growth rating MALT Plates CI 2: 1
  Growth rating MALT Plates CI 3: 0
  Growth rating MALT Plates CI 6: 0
  Growth rating MALT Plates CII 1: 4
  Growth rating MALT Plates CII 2: 4
  Growth rating MALT Plates CII 3: 4
  Growth rating MALT Plates CII 6: 4
  Growth rating TSA plates CI 1: 0
  Growth rating TSA plates CI 2: 0
  Growth rating TSA plates CI 3: 1
  Growth rating TSA plates CI 6: 0
  Growth rating TSA plates CII 1: 4
  Growth rating TSA plates CII 2: 4
  Growth rating TSA plates CII 3: 4
  Growth rating TSA plates CII 6: 3
[3]; B alone 120 ppm
  Growth rating MALT Plates CI 1: 4
  Growth rating MALT Plates CI 2: 4
  Growth rating MALT Plates CI 3: 2
  Growth rating MALT Plates CI 6: 0
  Growth rating MALT Plates CII 1: 4
  Growth rating MALT Plates CII 2: 4
  Growth rating MALT Plates CII 3: 4
  Growth rating MALT Plates CII 6: 4
  Growth rating TSA plates CI 1: 4
  Growth rating TSA plates CI 2: 2
  Growth rating TSA plates CI 3: 0
  Growth rating TSA plates CI 6: 0
  Growth rating TSA plates CII 1: 4
  Growth rating TSA plates CII 2: 3
  Growth rating TSA plates CII 3: 3
  Growth rating TSA plates CII 6: 3
[3]; B alone 200 ppm
  Growth rating MALT Plates CI 1: 4
  Growth rating MALT Plates CI 2: 2
  Growth rating MALT Plates CI 3: 1
  Growth rating MALT Plates CI 6: 0
  Growth rating MALT Plates CII 1: 4
  Growth rating MALT Plates CII 2: 4
  Growth rating MALT Plates CII 3: 4
  Growth rating MALT Plates CII 6: 4
  Growth rating TSA plates CI 1: 4
  Growth rating TSA plates CI 2: 2
  Growth rating TSA plates CI 3: 0
  Growth rating TSA plates CI 6: 0
  Growth rating TSA plates CII 1: 4
  Growth rating TSA plates CII 2: 3
  Growth rating TSA plates CII 3: 3
  Growth rating TSA plates CII 6: 3
